# Measurements published in publication PMC11251039, “Harnessing cholesterol uptake of malaria parasites for therapeutic applications” (EMBO Molecular Medicine, 2024).
# Where “and” joins values, the source holds several entries; their conditions need not be identical. Identical values can stand only once. Like-named read-outs stand apart in the source and are kept apart here.
# System: asexual P. falciparum 3D7 wild-type parasites
# Test: P. falciparum asexual growth inhibition assay (SYBR Safe DNA replication)
# Assay type: cell-based, Plasmodium falciparum
# Design: Figure 5B dose-response source data (growth, replicate values): unit not given here
# Experimental: P. falciparum asexual parasite assays commenced with ring-stage parasites at 1% parasitaemia and 1% haematocrit. 200 nM chloroquine (Sigma C6628) or artesunate (Sigma A3731) was used as a no-growth control. DNA replication (indicating growth) was measured at the specified time using SYBR Safe DNA Gel Stain (Invitrogen 33102) and a fluorescence microplate reader (Smilkstein et al, [2004]; Spry et al, [2013]). […]
# Growth and Viability Inhibition Assays:
# Plasmodium falciparum Growth Inhibition Assays:
# P. falciparum parasites were maintained under routine culture conditions in red blood cells and RPMI 1640-Hepes with Glutamax, supplemented with 10 mM D-glucose, 480 μM hypoxanthine, 20 μg/mL gentamicin, 0.375% (w/v) AlbuMAXTM II (Thermo Fisher 11021029), and 2.5% v/v heat-inactivated human serum (17). Cultures were maintained at 37 °C […]
# wildtype parasites except for the ring stage survival assay, as specified. Cultures were synchronised with 5% w/v D-sorbitol (18).
# Growth inhibition was investigated according to methods described by Smilkstein et al. (19) with modifications by Spry et al. (20). Compounds or solvent controls (DMSO, ethanol, or ethyl acetate) were serially diluted 2-fold across flat-bottom 96-well plates. Culture media without compound was used as a negative control. 200 nM chloroquine (Sigma C6628) or artesunate (Sigma A3731) was used as a positive control to determine background fluorescence. The parasitaemia of a culture containing predominantly ring stage parasites was counted by Giemsa smear. The parasitaemia was adjusted to 1% by addition of fresh uRBCs and added to the plate at a final haematocrit of 1%, with 200 µL per well. The plates were incubated at 37 °C under humid microaerophilic conditions. After 24, 48, or 72 hours, the plates were transferred to a -18 °C freezer to stop the assay and lyse cells. Plates were thawed and lysate was mixed 1:1 with SYBR Safe DNA Gel Stain (Invitrogen 33102) (final concentration 1/10,000) diluted in lysis buffer (20 mM TRIS, 5 mM EDTA, 0.008% w/v Saponin, 0.08% w/v Triton-X 100, pH 7.5). Fluorescence was detected at 490 nm excitation/ 520 nm emission on a FLUOstar Optima fluorescence plate reader (BMG Labtech).
# [1] = Plasmodium falciparum, 3D7, 72 h; read-out: IC50, P. falciparum asexual growth inhibition
# [2] = Plasmodium falciparum, 3D7; 24 h, starting at ring stages; read-out: IC50, P. falciparum asexual growth inhibition
smiles,measurement,setting,value
COc1cc(NC(C)CCCNC(=O)CCC(=O)O[C@H]2CC[C@@]3(C)C(=CC[C@H]4[C@@H]5CC[C@H]([C@H](C)CCCC(C)C)[C@@]5(C)CC[C@@H]43)C2)c2ncccc2c1 (some centres unmarked) [C-3-PQ],"P. falciparum asexual growth, percentage of control","0.390625000 uM, 24 h, replicate values, source data Fig. 2B; listed as BC64C",131.7% and 66.76% and 95.56% and 108.4% and 112% and 85% and 101.8% and 112.2% and 92.84%
same,"P. falciparum asexual growth, percentage of control","0.781250000 uM, 24 h, replicate values, source data Fig. 2B; listed as BC64C",150.2% and 111.9% and 88.57% and 84.46% and 114.9% and 73.34% and 95.38% and 91.75% and 80.98%
same,"P. falciparum asexual growth, percentage of control","1.562500000 uM, 24 h, replicate values, source data Fig. 2B; listed as BC64C",126.1% and 129.8% and 105.9% and 128.7% and 121.9% and 90.74% and 123.6% and 79.12% and 103.6%
same,"P. falciparum asexual growth, percentage of control","3.125000000 uM, 24 h, replicate values, source data Fig. 2B; listed as BC64C",126.5% and 121.8% and 108.8% and 133% and 55.06% and 86.31% and 120.7% and 105.6% and 95.15%
same,"P. falciparum asexual growth, percentage of control","6.250000000 uM, 24 h, replicate values, source data Fig. 2B; listed as BC64C",133.8% and 98.67% and 102.2% and 109% and 94.05% and 103.7% and 108.1% and 76.85% and 81.21%
same,"P. falciparum asexual growth, percentage of control","12.500000000 uM, 24 h, replicate values, source data Fig. 2B; listed as BC64C",157.5% and 116.3% and 102.8% and 135.3% and 108.6% and 85.91% and 111.9% and 81.39% and 66.81%
same,"P. falciparum asexual growth, percentage of control","25.000000000 uM, 24 h, replicate values, source data Fig. 2B; listed as BC64C",149.9% and 129.1% and 105.1% and 150.2% and 115.2% and 49.33% and 125.1% and 71.79% and 57.24%
same,"P. falciparum asexual growth, percentage of control","50.000000000 uM, 24 h, replicate values, source data Fig. 2B; listed as BC64C",150.4% and 131.3% and 98.75% and 124.5% and 117.8% and 89.9% and 146.3% and 135.4% and 89.26%
same,"P. falciparum asexual growth, percentage of control","100.000000000 uM, 24 h, replicate values, source data Fig. 2B; listed as BC64C",78.34% and 90.49% and 98.72% and 114.4% and 78.89% and 75.44% and 171.9% and 124.7% and 104.9%
same,Inhibition of parasite growth,24 h,no inhibition of parasite growth up to 100 µM
same,IC50,[1],> 200000 nM
same,IC50,[2],> 200000 nM
CC(C)CCC[C@@H](C)[C@H]1CC[C@H]2[C@@H]3CC=C4C[C@@H](OC(=O)CCC(=O)OC(C)C)CC[C@]4(C)[C@H]3CC[C@]12C [C-3-link],"P. falciparum asexual growth, percentage of control","0.781250000 uM, 24 h, replicate values, source data Fig. 2B; listed as GGA3",138.2% and 69.67% and 108.2% and 127.5% and 114.2% and 69.05% and 145.4% and 89.72% and 93.86%
same,"P. falciparum asexual growth, percentage of control","1.562500000 uM, 24 h, replicate values, source data Fig. 2B; listed as GGA3",130.3% and 104.4% and 98.52% and 110.7% and 113.3% and 87.62% and 145.2% and 92.88% and 49.26%
same,"P. falciparum asexual growth, percentage of control","3.125000000 uM, 24 h, replicate values, source data Fig. 2B; listed as GGA3",128.1% and 110.6% (2×) and 120.7% and 130.3% and 119.8% and 103.2% and 132.9% and 71.34%
same,"P. falciparum asexual growth, percentage of control","6.250000000 uM, 24 h, replicate values, source data Fig. 2B; listed as GGA3",93.75% and 68.17% and 50.04% and 136.5% and 109.3% and 87.77% and 130% and 101.8% and 92.88%
same,"P. falciparum asexual growth, percentage of control","12.500000000 uM, 24 h, replicate values, source data Fig. 2B; listed as GGA3",119.7% and 70.39% and 47.65% and 137.3% and 124.9% and 51.68% and 112.4% and 101.8% and 77.92%
same,"P. falciparum asexual growth, percentage of control","25.000000000 uM, 24 h, replicate values, source data Fig. 2B; listed as GGA3",123.1% and 134.3% and 128.6% and 112.3% and 97.18% and 95.88% and 133.7% and 5.942% and 77.98%
same,"P. falciparum asexual growth, percentage of control","50.000000000 uM, 24 h, replicate values, source data Fig. 2B; listed as GGA3",105.1% and 133.6% and 70.07% and 116% and 103% and 74.44% and 77.73% and 97.2% and 107.5%
same,"P. falciparum asexual growth, percentage of control","100.000000000 uM, 24 h, replicate values, source data Fig. 2B; listed as GGA3",147.4% and 120% and 109% and 100.9% and 90.73% and 81.6% and 95.19% and 71.65% and 81.81%
same,"P. falciparum asexual growth, percentage of control","200.000000000 uM, 24 h, replicate values, source data Fig. 2B; listed as GGA3",125% and 120.9% and 88.35% and 101.9% and 79.2% and 19.96% and 163.3% and 103.1% and 105.4%
same,Inhibition of parasite growth,24 h,no inhibition of parasite growth up to 200 µM
same,IC50,[1],> 200000 nM
same,IC50,[2],> 200000 nM
"CCN(CC)CCCC(C)Nc1ccnc2cc(Cl)ccc12 (centres unmarked) [Chloroquine, chloroquine, reference compound]",IC50,"Plasmodium falciparum, 3D7, 24 h, read-out: IC50, P. falciparum asexual growth inhibition",10.9 nM
same,IC50,"Plasmodium falciparum, 3D7, 48 h, read-out: IC50, P. falciparum asexual growth inhibition",9.9 nM
same,IC50,"Plasmodium falciparum, 3D7, 72 h, read-out: IC50, P. falciparum asexual growth inhibition",9.7 nM
"CC(C)CCC[C@@H](C)[C@H]1CC[C@H]2[C@@H]3CC=C4C[C@@H](O)CC[C@]4(C)[C@H]3CC[C@]12C [Cholesterol, cholesterol]","Figure 5B dose-response source data (growth, replicate values)",Concentration 0.1953125 uM; individual replicates,97.65 and 98.85 and 95.16 and 99.46 and 98.26 and 98.24 and 102.6 and 96.06 and 94.45
same,"Figure 5B dose-response source data (growth, replicate values)",Concentration 0.390625 uM; individual replicates,95.8 and 101 and 95.94 and 100.9 and 102.2 and 97.7 and 93.65 and 98.46 and 98.54 and 95.82 and 88.53 and 95.33 and 96.33 and 97.81 and 92.68
same,"Figure 5B dose-response source data (growth, replicate values)",Concentration 0.78125 uM; individual replicates,99.57 and 96.48 and 97.66 and 98.24 and 100.6 and 107.5 (2×) and 107.4 and 98.35 and 96.07 and 96.59 and 98.18 and 96.9 and 98.19 and 100.3 and 96.94 and 95.15 and 100.1 and 95.95 and 95.21 and 98.02 and 100 and 96.51
same,"Figure 5B dose-response source data (growth, replicate values)",Concentration 1.5625 uM; individual replicates,98.13 and 98.43 and 98.36 and 100.5 and 96.82 and 110.3 and 108.8 and 107.2 and 96.68 and 92.68 and 85.1 and 96.36 and 98.17 and 96.8 and 101.5 and 98.35 and 94.77 and 99.77 and 99.63 and 99.09 and 97.58 and 93.8 and 94.68
same,"Figure 5B dose-response source data (growth, replicate values)",Concentration 3.125 uM; individual replicates,99.65 and 95.37 and 96.75 and 101.4 and 107.2 and 106.1 and 106.5 and 104.9 and 98.31 and 99.02 and 98.46 and 95.92 and 100.7 and 98.47 and 104.4 and 98.86 and 101.6 and 91.05 and 95.88 and 95.01 and 101.3 and 96.56 and 97.39
same,"Figure 5B dose-response source data (growth, replicate values)",Concentration 200 uM; individual replicates,102.2 and 101.3 and 99.63
same,"Figure 5B dose-response source data (growth, replicate values)",Concentration 400 uM; individual replicates,106.3 and 99.95 and 99.03 and 90.17
same,IC50,[1],> 400000 nM
